From BigSolDB 2.1

CC(CO)(CO)CO
solubility (mole fraction)
Conditions | 283.15 K | 288.15 K | 293.15 K | 298.15 K | 303.15 K | 311.05 K | 313.15 K | 318.15 K
in ethyl acetate | 0.00205 | 0.00263 | 0.00335 | 0.00433 | 0.00528 | 0.00673 | 0.00841 | 0.0105
in methyl acetate | 0.0026 | 0.00317 | 0.00398 | 0.00512 | 0.00638 | 0.00801 | 0.00997 | 0.013
in n-butanol | 0.0386 | 0.0449 | 0.0535 | 0.0634 | 0.0769 | 0.0914 | 0.11 | 0.131
